Experimental data as given in patent US4665157A, “Peptide antagonists of neurokinin B” (priority 1985, dated 1987).
Where a SMILES comes first, the peptide text is derived from it. [ ]: non-standard residue; d: D form. Nle = CCCC[C@H](N)C(=O)O

Tests used:
[1] = test system: Neurokinin B-induced scratching; assay: Tachykinin-induced mouse scratching assay: antagonism of Neurokinin B-induced scratching; type: in vivo, Male, Swiss CD-1 mice; set-up: unit not given beside the values; conditions: dose of antagonist inhibiting NK-induced scratching by 50%; intrathecal, injected simultaneously with SD90 dose of NK; parentheses = 95% fiducial limits
Text: The tachykinin-induced mouse scratching assay was used to evaluate the ability of the Neurokinin B analogs of the invention to act in vivo as antagonists.
Male, Swiss CD-1 mice (Charles River, Kingston, NY) weighing between 18-24 g were used in all experiments. They were allowed food and water ad libitum and each animal was used only once.
Following the intrathecal injection of agonist, the animals were placed into individual plexiglass observation chambers and observed for five min for the occurrence of the characteristic reciprocal hind-limb scratching response (caudallyn directed scratching of the body interchangeably by the hind limbs). Animals were scored as either responders or non-responders. In order to assess the ability and specificity of the Neurokinin B analogs to block the scratching produced by substance P, Neurokinin B and bombesin, varying doses of the antagonists were injected simultaneously with that dose of agonist causing 90% of the animals to scratch. […] In some instances, the percent inhibitions of scratching for a given dose of agonist was compared to control values by the Fishers Exact Test.

[2] = test system: substance P-induced scratching; type: in vivo, Male, Swiss CD-1 mice; set-up: ID50 vs SP: unit not given beside the values; conditions: for ID50 vs SP: dose of antagonist inhibiting SP-induced scratching by 50%, intrathecal, injected simultaneously with SD90 dose of SP, parentheses = 95% fiducial limits; for % inhibition of SP-induced scratching: mouse, in vivo
Text: (§1) The tachykinin-induced mouse scratching assay was used to evaluate the ability of the Neurokinin B analogs of the invention to act in vivo as antagonists. This test was chosen since scratching is well documented to be a reproducible, characteristic central effect of tachykinin agonists which can be blocked by tachykinin antagonists, see Hylden and Wilcox, Brain Res. 217: 212 (1981); Piercey et al., Science 214: 1361, (1981); Vaught et al., Eur. Journal Pharmacol. 103: 355, (1984).
(§2) Male, Swiss CD-1 mice (Charles River, Kingston, NY) weighing between 18-24 g were used in all experiments. They were allowed food and water ad libitum and each animal was used only once. Substance P, Neurokinin B, bombesin (a compound which induces scratching but is not a tachykinin), [D-Pro^2,D-Trp^7,9 ]-Substance P(1-11) and the product of Example 1 were dissolved in 0.01N acetic acid. The products of Examples 2, 3 and 4 were dissolved in 0.1N NaOH; DMSO and H2 O (1:1:4.7 v/v). These vehicles, injected intrathecally to mice, produced no overt behavioral effects.
To determine the activity of substance P, Neurokinin B and bombesin, these agonists were injected intrathecally (max. volume […]) according to the method of Hylden et al. described in Eur. Journal Pharmacol. 67: 313 (1980). Following the intrathecal injection of agonist, the animals were placed into individual plexiglass observation chambers and observed for five min for the occurrence of the characteristic reciprocal hind-limb scratching response (caudallyn directed scratching of the body interchangeably by the hind limbs). Animals were scored as either responders or non-responders. In order to assess the ability and specificity of the Neurokinin B analogs to block the scratching produced by substance P, Neurokinin B and bombesin, varying doses of the antagonists were injected simultaneously with that dose of agonist causing 90% of the animals to scratch. The ID50 (that dose of antagonist which inhibits scratching produced by an agonist by 50%) was then calculated by probit analysis. In some instances, the percent inhibitions of scratching for a given dose of agonist was compared to control values by the Fishers Exact Test. The following results were obtained in the Scratching Assay: […]

[3] = Mouse Hot Plate Assay (analgesia); type: in vivo, mice; conditions: for ED50: dose producing analgesia in 50% of animals, hot plate 48° C., parentheses = 95% fiducial limits; for ED50 / Duration of Action: intrathecal; for Duration of Action: duration of the analgesic effect; for Onset of Action: time to peak analgesic activity following intrathecal injection
Description: Analgesic Utility: The Mouse Hot Plate Assay was used to determine the activity of compounds of the invention as analgesics. The compound vehicles were as described above in the Scratching Assay.
Mouse Hot Plate Assay: The hot plate assay was used to assess analgesic potency, see Vaught and Chipkin, Eur. Journal. Pharmacol. 79, 167-173 (1982) and references therein. In these experiments the hot plate apparatus (Technilab Instruments, Inc.) was maintained at 48±0.05° C. The response measure was the time interval between the animal being placed on the heated surface and licking or shaking its hindpaw. Test drug was administered intrathecally and at appropriate times following drug administration the reaction times redetermined. A reaction time for drug-treated animals greater than three standard deviations from the mean of the control reaction times for all the animals in the group was the criterion for an analgesic response. At least three doses with 10 animals per dose were used to construct dose response curves.

[4] = test system: bombesin-induced scratching; type: in vivo, Male, Swiss CD-1 mice; conditions: % inhibition of scratching at 20 μg antagonist, intrathecal
Text: as §1, §2
To determine the activity of substance P, Neurokinin B and bombesin, these agonists were injected intrathecally (max. volume […]) according to the method of Hylden et al. described in Eur. Journal Pharmacol. 67: 313 (1980). […] Animals were scored as either responders or non-responders. […]

## CCCC[C@H](NC(=O)[C@H](CC(C)C)NC(=O)[C@@H](Cc1c[nH]c2ccccc12)NC(=O)[C@@H](NC(=O)[C@@H](Cc1c[nH]c2ccccc12)NC(=O)[C@H](Cc1ccccc1)NC(=O)[C@H](CC(=O)O)NC(=O)[C@H](Cc1c[nH]cn1)NC(=O)[C@H]1CCCN1C(=O)[C@@H](N)CC(=O)O)C(C)C)C(N)=O [Example 1, Asp^1 -D-Pro^2 -His^3 -Asp^4 -Phe^5 -D-Trp^6 -Val^7 -D-Trp^8 -Leu^9 -Nle^10 -NH2] (H-D[dP]HDF[dW]V[dW]L[Nle]-NH2)
[1]
  ID50 vs. NK: 0.6(0.3-1.2)
[2]
  ID50 vs SP: 3.4(2.3-5.2)
[3]
  ED50: 4.6(3.0-6.4) μg
  Duration of Action: ≥ 90 min
  Onset of Action: 20 min

## CCCC[C@H](NC(=O)[C@H](CC(C)C)NC(=O)[C@@H](Cc1c[nH]c2ccccc12)NC(=O)[C@@H](NC(=O)[C@@H](Cc1c[nH]c2ccccc12)NC(=O)[C@H](Cc1ccccc1)NC(=O)[C@H](CC(=O)O)NC(=O)[C@H](Cc1c[nH]cn1)NC(=O)[C@H]1CCCN1C(=O)[C@H](N)CC(=O)O)C(C)C)C(N)=O [Example 2, D-Asp^1 -D-Pro^2 -His^3 -Asp^4 -Phe^5 -D-Trp^6 -Val^7 -D-Trp^8 -Leu^9 -Nle^10 -NH2] (H-[dD][dP]HDF[dW]V[dW]L[Nle]-NH2)
[2]
  % inhibition of SP-induced scratching: 90%
[3]
  ED50: 7.5(5.9-9.5) μg
  Duration of Action: 120 min
  Onset of Action: 20 min

## CCCC[C@H](NC(=O)[C@H](CC(C)C)NC(=O)[C@@H](Cc1c[nH]c2ccccc12)NC(=O)[C@@H](NC(=O)[C@@H](Cc1c[nH]c2ccccc12)NC(=O)[C@H](Cc1ccccc1)NC(=O)[C@@H](CC(=O)O)NC(=O)[C@H](Cc1c[nH]cn1)NC(=O)[C@H]1CCCN1C(=O)[C@H](N)CC(=O)O)C(C)C)C(N)=O [Example 3, D-Asp^1 -D-Pro^2 -His^3 -D-Asp^4 -Phe^5 -D-Trp^6 -Val^7 -D-Trp^8 -Leu^9 -Nle^10 -NH2] (H-[dD][dP]H[dD]F[dW]V[dW]L[Nle]-NH2)
[2]
  % inhibition of SP-induced scratching: 70%
[3]
  ED50: 10.4(7.7-13.2) μg
  Duration of Action: ≤ 90 min
  Onset of Action: 20 min

## CCCC[C@H](NC(=O)[C@H](CC(C)C)NC(=O)[C@@H](Cc1c[nH]c2ccccc12)NC(=O)[C@@H](NC(=O)[C@@H](Cc1c[nH]c2ccccc12)NC(=O)[C@H](Cc1ccccc1)NC(=O)[C@@H](CC(=O)O)NC(=O)[C@H](Cc1c[nH]cn1)NC(=O)[C@H]1CCCN1C(=O)[C@@H](N)CC(=O)O)C(C)C)C(N)=O [Example 4, Asp^1 -D-Pro^2 -His^3 -D-Asp^4 -Phe^5 -D-Trp^6 -Val^7 -D-Trp^8 -Leu^9 -Nle^10 -NH2] (H-D[dP]H[dD]F[dW]V[dW]L[Nle]-NH2)
[2]
  % inhibition of SP-induced scratching: 50%
[3]
  ED50: 10.0(5.5-18.2) μg
  Duration of Action: ≤ 60 min
  Onset of Action: 20 min

## [D-Pro^2,D-Trp^7,9 ]-Substance P(1-11) [[D-Pro^2,D-TrP^7,9]-SP(1-11), reference compound]
[1]
  ID50 vs. NK: 2.6(0.8-4.8)
[2]
  ID50 vs SP: 4.6(2.9-6.9)
[4]
  % Inhibition of Bombesin: 20%
[3]
  ED50: 5.5(3.2-6.8) μg
  Duration of Action: ≤ 15 min
  Onset of Action: 5 min
